Experimental data taken from publication PMC7915858, “Complementary Effects of Carbamylated and Citrullinated LL37 in Autoimmunity and Inflammation in Systemic Lupus Erythematosus” (International Journal of Molecular Sciences, 2021).

Experiments:
[1] = test system: SLE serum antibody; experiment: ELISA for antibody reactivity of SLE sera to carb-/cit-/native LL37 and carb-REV, and its correlation with SLEDAI; format: binding, human; conditions: for Antibody reactivity in SLE patients with renal damage versus without renal damage: N=6 with and N=44 without renal damage, Mann-Whitney, Figure S3 panel a P 0.047
Procedure: Anti-native LL37/cit-LL37/carb-LL37 antibodies were measured as described. Briefly, 96-well flat-bottom plates (Non-Binding surface polystyrene, Corning, Glendale, AZ USA) were coated with 2 μg/mL of native LL37, cit-LL37 or carb-LL37 in carbonate buffer (0.1 M NaHCHO3, pH 9) for 2 h (or overnight) and washed four times with PBS plus 0.1% Tween-20. This washing buffer was used for washing at all steps. The blocking buffer containing 2% bovine serum albumin (BSA, Sigma) in PBS was used for at least 1 h (or overnight) to saturate unspecific binding sites. After washing, sera were diluted at various concentrations (usually at 1:100 or 1:200) in PBS + 2% BSA followed by 1 h incubation with a horseradish peroxidase–conjugated (HRP) goat anti-human IgG (Sigma-Aldrich), diluted 1:10,000 in PBS. The color was developed for 5 min with 3,3′,5,5′-tetramethylbenzidine (TMB) substrate (Sigma-Aldrich). The reaction was stopped by adding 50 μL of 2 N H2SO4 and absorbance determined at 450 nm with a reference wavelength of 540 nm. Responses were considered positive when the OD measured exceeded the mean OD values measured in healthy donors’ plasma plus two standard deviations (+2SD), calculated on the HD group values, as described.
(§1) Differences between mean values were assessed by Wilcoxon’s matched-pair signed rank test, to compare responses to antigens and control antigens in the same donor. We used Mann-Whitney test for comparison of T-cell and antibody responses between groups of patients and HD. Statistical significance was set at p < 0.05. Correlation analyses were performed by Spearman’s rank-correlation test. Data were analyzed by GraphPad Prism 7.0 or SPSS software.

[2] = test system: SLE CD4 T-cells; experiment: T-cell proliferation (BrdU incorporation, flow cytometry); format: cell-based, human; conditions: for SLE patients responding by T-cell proliferation: BrdU, positive if SI > 3, carb-LL37 8 of 25, native LL37 17 of 31, cit-LL37 16 of 31 SLE patients
Procedure: PBMCs were purified from EDTA-treated blood, on Ficoll-Hypaque (Pharmacia Fine Chemicals, Uppsala, Sweden) and were incubated (10^5 cells/well) in 96-well-flat-bottom-microplates (BD) in T-cell-medium (RPMI 1640, 10% heat-inactivated human serum, HS, Gibco), 2 mM L-glutamine, 10 U/mL penicillin and 100 μg/mL streptomycin), with/without peptides. We performed assays on fresh cells, within 1-to-3 h from collection or on PBMCs frozen in 90% FCS−10% DMSO, whose viability we assessed by Trypan blue exclusion, with an inverted microscope. Recovery of live cells was between 65 and 85% of the frozen number. At day 3 and 5, BrdU was added (1 μg/mL). BrdU-incorporation was detected by APC-labeled anti-BrdU antibody (BD Pharmingen), after surface staining for CD4, CD3, CD8 and analyzed by flow cytometry (Gallios, BeckmanCoulter, Brea, CA, USA). Internal control for T-cell viability and proliferation was PHA treatment (2 μg/mL). SI for proliferation was calculated by dividing percent of BrdU-staining in the presence of each peptide antigen (LL37, carb-LL37, cit-LL37, LL37 reverse, REV; cit-LL37 reverse, cit-REV; carb-LL37 reverse, carb-REV) by the percent obtained in the untreated cells. SI for proliferation was considered positive when the values of percent of BrdU positive cells was three times higher than the values obtained with the control peptides (SI > 3). Assays were repeated twice with each patient. In rare cases in which background proliferation (culture with REV, cit-REV, carb-REV), exceeded antigen-specific proliferation (that is response to LL37, carb-LL37, cit-LL37), the assay was repeated three times. Concomitant phenotype analysis of LL37-responder T-cells included staining for CD3, CD4, CD8, CXCR5 (CXCR5 was assessed on BrdU/CD3/CD4-positive cells).
as §1

[3] = test system: pDCs; experiment: IFN-α production by purified pDCs stimulated with peptide-DNA complexes; format: cell-based, human; conditions: 24 h, ELISA; for IFN-α response of pDCs to peptide alone: peptide without DNA
Procedure: Buffy-coats from HD were from Centro Trasfusionale, Policlinico Umberto I, Rome, IT. After separation of mononuclear cells by Ficoll centrifugation, pDCs were purified as described, by using the Diamond Plasmacytoid Dendritic Cell Isolation Kit (Miltenyi Biotec, Bergisch Gladbach, Germany) to obtain 99% purity. Purified pDCs were seeded into 96-well round-bottom plates at 3.5/5 × 10^4 cells per well in 200 μL RPMI 1640 (GIBCO), supplemented with 10% fetal calf serum (FCS), 1% Hepes and 1% sodium pyruvate. LL37, cit-LL37 and carb-LL37 were premixed with total human genomic DNA (extracted from PBMC of HD, see below) (15 μg/mL). After 15 min incubation at room temperature the mix was added to the pDC cultures. IFN-α in supernatants was measured by ELISA (MabTech, Stockholm, Sweden), after 24 h (according to the manufacturer’s instructions).
Human DNA was extracted from PBMCs, as reported and was fragmented by sonication. Five milligrams of DNA in a volume of 300 μL were fragmented using the Sonics Vibra Cell sonicator (Newtown, CT, USA), with the following settings: 2, 4 and 10 sonication cycles (30 s on, 30 s off, in ice) to obtain DNA fragment sizes between 100 and 1000 bp. The resulting size distribution was controlled by 2% agarose gel electrophoresis.

[4] = test system: memory B-cells; experiment: Maturation of purified B-cells into plasma cells, flow cytometry; format: cell-based, human; conditions: 7 days; for Plasma cells (CD38highCD27highCD19neg): hrIL-2 50UI/ml; for Stimulation of B-cells to mature into plasma cells, peptide-DNA complex: peptide premixed with DNA (15 μg/mL), hrIL-2 50 UI/mL
Procedure: PBMCs were isolated by Ficoll-Paque centrifugation (as described above). Total B-cells were isolated by using the Human B-Cell Isolation Kit II, (Miltenyi Biotec, Bergisch Gladbach, Germany), from fresh PBMCs. The purity of B-cells was verified by flow cytometry using the monoclonal anti-human CD19 fluorescein isothiocyanate (FITC). The percentage of memory B-cells was assessed by flow cytometry using monoclonal anti-human CD19 fluorescein, anti-human CD27 allophycocyanin and anti-human CD38 Pacific Blue antibodies (BD Biosciences, San Jose, CA, USA). The majority of B-cells (>80%) were memory cells expressing CD19/CD27 and low CD38 [29].
LL37/cit-LL37/carb-LL37 were each premixed with DNA (15 μg/mL) and added to the B-cell cultures in RMPI 10% FCS, after a 15-min incubation at room temperature. At day 2, hrIL-2 at 50UI/mL was added to the cultures, which were kept in the incubator for 7 days.
Maturation of B-cells into plasma cells was investigated after 7 days culture by flow cytometry (Gallios, BeckmanCoulter, Brea, CA, USA) following surface staining with the following monoclonal antibodies: anti-human CD19 fluorescein-, CD27 allophycocyanin-, CD38 Pacific Blue-conjugated (BD Biosciences, CA, USA). Analysis of the FCS files was performed by FlowJo (BD, San Jose, CA, USA) or by Kaluza (Beckman Coulter, Indianapolis, IN, USA).

Row | Substance | SLE patients showing an antibody response to the antigen ([1]; ELISA, 2 μg/mL coated antigen, sera 1:100 or 1:200, OD 450 nm, positive: OD > mean HD + 2SD, carb-LL37 28 of 45, carb-REV 8 of 47 SLE patients) [%] | SLE serum antibody reactivity (OD) compared to healthy donors ([1]; ELISA, OD, Mann-Whitney's test) | Antibody reactivity in SLE patients with renal damage versus without renal damage ([1]; ELISA) | Correlation of antibody reactivity with SLEDAI ([1]; Spearman) | Correlation of anti-carb-LL37 with anti-cit-LL37 antibody reactivity ([1]; Spearman, Figure 2c) | Correlation of anti-carb-LL37 with anti-native LL37 antibody reactivity ([1]; Spearman, Figure 2d left) | Proliferation of SLE CD4 T-cells ([2]; BrdU incorporation, stimulation index, Wilcoxon's test) | BrdU-positive CD3+CD4+ T-cells ([2]; BrdU staining, representative zebra plot, Figure S5a) [%] | SLE patients responding by T-cell proliferation [2] [%] | Correlation of T-cell responses to carb-LL37 and native LL37 ([2]; SI, Spearman, Figure 3b) | Correlation of T-cell proliferation with SLEDAI or autoantibodies to LL37 ([2]; SI, Spearman, Figure 4a,b) | Antigen efficiency compared to cit-LL37 ([2]; SLE cohort analyzed) | IFN-α response of pDCs to peptide alone [3] | Plasma cells (CD38highCD27highCD19neg) ([4]; 10 µM peptide + DNA, Figure S9b) [%] | Plasma cells (CD38highCD27highCD19neg) ([4]; 10 µM peptide alone, Figure S9a) [%] | Plasma cells (CD38highCD27highCD19neg) ([4]; 20 µM peptide + DNA, Figure S9c) [%] | Stimulation of B-cells to mature into plasma cells, peptide-DNA complex [4] | IFN-I/IFN-α production by pDCs, peptide-DNA complex ([3]; peptide premixed with human DNA (15 μg/mL))
1 | L*LGDFFRK*SK*EK*IGKEFK*RIVQRIK*DFLRNLVPRTES [carb-LL37] | 62 | significant SLE serum antibody reactivity | significantly higher anti-carb-LL37 antibody reactivity | A significant correlation was appreciated | correlated significantly with anti-cit-LL37 antibody reactivity | less but still in a significant manner | significant proliferation of SLE CD4 T-cells, although less efficiently than cit-LL37 | 18.3 | 32 | correlated moderately | moderate but significant correlation | less efficient antigen compared to cit-LL37 | no IFN-α response | 14.73 | 7.27 | 28.09 | maintained LL37 ability to stimulate the B-cells to mature into plasma cells | –
2 | LLGDFFR(cit)KSKEKIGKEFKR(cit)IVQR(cit)IKDFLR(cit)NLVPR(cit)TES [cit-LL37, LL37 citrullinated at all five arginine sites] | – | – | non-significant anti-cit- and anti-native-LL37 antibody increase | both responses also correlated with SLEDAI | – | – | – | – | 52 | – | – | – | no IFN-α response | – | – | – | abolishes the B-cell maturation into plasma cells | did not stimulate any IFN-I production by pDCs
